Source: paper PMC10961089, “Epidermal growth factor receptor inhibition potentiates chemotherapeutics‐mediated sensitization of metastatic breast cancer stem cells” (Cancer Reports, 2024)
Like-named read-outs stand apart in the source and are kept apart here.

How the values were obtained:
MDA‐MB‐231 [1] = experiment: MTT cytotoxicity assay in MDA-MB-231; type: cell-based, human; details: for IC50: 48 h, read-out: IC50 (μM) in MDA‐MB‐231 (mean ± SD)
Procedure: (§1) TNBC cell lines (ER^−, PR^−, HER2^−)—MDA‐MB‐231 (ATCC HTB‐26) and MDA‐MB‐468 (ATCC HTB‐132) were procured from ATCC and cultured in Roswell Park Memorial Institute Media (RPMI‐1640) and Dulbecco's Modified Eagle's Medium (DMEM), respectively, supplemented with 10% FBS and 1% Penicillin–Streptomycin solution. Cells were maintained at 5% CO2 at 37°C in a humid atmosphere.[6], [26] The control cell line, Human Embryonic Kidney—HEK‐293 (ATCC CRL‐3216) was also obtained from ATCC and cultured in DMEM.[5], [25]
(§2) To evaluate the cytotoxicity profile of the potential EGFR inhibitors (compounds) against TNBC cell lines—MDA‐MB‐231, MDA‐MB‐468, and control cell line HEK293, cells were seeded at a cell density of 5 × 10^3 cells/well in complete medium onto 96‐well plates. Here, the non‐tumoral human embryonic kidney (HEK293) epithelial cells have been utilized as a control cell line to compare the IC50 values of the compounds between cancerous and non‐cancerous cell lines with a big therapeutic window. The use of HEK293 cells as compared to other non‐cancerous cell lines are easy to maintain in culture and the results obtained from HEK293 are highly reproducible and consistent.[27] Briefly, the cells were incubated at 37°C for 12 h to attain morphology. After 12 h, cells were serum starved by replacing the complete media with media containing 2% FBS to synchronize the cells. Post‐12 h of synchronization, cells were treated with an increasing concentration (0.1, 1, 10, 100 μM) of all the compounds (1a, 1b, 1c, 1d, 1e, 1f, 1g, 1h, 1i, 1j, 1k). Separately, TNBC cells were treated with increasing concentration (0.01, 0.1, 1 μM) of Doxorubicin (Sigma‐Aldrich, St Louis, MO, USA) in presence of the selected compounds (1c, 1e, 1g, 1h, 1j, and 1k) at 5 μM concentration or combination of selected compounds (1c, 1e, 1g, 1h, 1j, and 1k) at increasing concentration (1, 2.5, 5, 10 μM) in presence of Doxorubicin (0.01 μM) for 48 h. In addition, the CD24^+‐breast cancer cells and CD24^−/CD44^+‐breast CSC populations, being sorted by Magnetic Activated Cell Sorting (MACS) from MDA‐MB‐231 cells as described previously,[6] were also treated with increasing concentrations of Doxorubicin (0.01–1 μM), in the presence or absence of 1e (10–30 μM), or PD153035 (10 μM) (Sigma‐Aldrich, St Louis, MO, USA). MTT assay was performed to evaluate the cytotoxicity of these compounds against the TNBC cell lines, and the sorted populations as described previously.[6] All the experiments were performed thrice and the IC50 values of the compounds and Doxorubicin were calculated using GraphPad Prism software version 9 (San Diego, CA, USA). Similarly, the percent inhibition of the sorted cell populations by chemotherapeutic drug, doxorubicin in the absence/presence of potent compound 1e or standard EGFR inhibitor, PD153035 was evaluated utilizing GraphPad Prism Version 9 (San Diego, CA, USA).

MDA‐MB‐468 [2] = experiment: MTT cytotoxicity assay in MDA-MB-468; type: cell-based, human; details: for decrease in the IC50 of Doxorubicin in the presence of the compound: MDA-MB-468, versus Doxorubicin alone; for IC50: 48 h, read-out: IC50 (μM) in MDA‐MB‐468 (mean ± SD)
Procedure: as §1, §2

HEK‐293 = experiment: MTT cytotoxicity assay in control cell line HEK-293; type: cell-based, human; details: non-tumoral control cell line, read-out: IC50 (μM) in HEK‐293 (mean ± SD)
Procedure: as §1, §2

[3] = system: Bax and Cytochrome‐C in MDA‐MB‐231 cells; experiment: Gene expression of apoptotic genes, semi-quantitative RT-PCR; type: cell-based, human; details: MDA-MB-231, doxorubicin + compound 5 μM, 24 h
Procedure: Briefly, the cells were incubated at 37°C with serum starvation followed by culturing as described above. […] Briefly, the template RNA (1 μg) was utilized for cDNA synthesis using a First‐strand cDNA synthesis kit (Thermo Scientific, USA) according to the manufacturer's protocol. Thermal cycler (Mastercycler® nexus, Eppendorf) was used for the amplification of the expression of apoptotic genes—Bax, Bcl2, Cytochrome‐C, and target gene EGFR with the help of Dream Taq DNA Polymerase PCR Master Mix (Thermo Scientific, USA) along with human gene‐specific forward and reverse primer sequences of the apoptotic genes and EGFR (Table ST1). The expression of the target genes was normalized to the Eukaryotic 18S rRNA.

[4] = system: CD24^−/CD44^+‐breast CSCs xenotransplanted tumors; experiment: Preclinical orthotopic xenograft murine tumor model (tumor size, weight, H&E histology); type: in vivo, C57BL/6 mice; details: doxorubicin high dose 10 mg/kg intratumoral vs untreated breast CSCs transplanted group
Procedure: Animal studies have been carried out with the prior approval of the Institutional Animal Ethics Committee (IICT/IAEC/025/2023). C57BL/6 female mice of age 6–8 weeks (N = 35) were initially immunosuppressed with cyclophosphamide (50 mg/kg of body weight, i.p) on alternate days for 2 weeks. For generating a preclinical orthotopic xenograft tumor model, 2 × 10^6 GFP expressing sorted stable CD24^+‐breast cancer cells and CD24^−/CD44^+‐breast CSCs were orthotopically xeno‐transplanted subcutaneously at the fourth mammary fat pad of immune‐suppressed mice (n = 5/group). Subsequently, intratumoral administration of Doxorubicin at a low dose (2.5 mg/kg of body weight), high dose (10 mg/kg of body weight), and/or combinatorial treatment of the potent EGFR inhibitor, compound 1e (50 mg/kg of body weight) or the commercial EGFR inhibitor, PD153035 (50 mg/kg of body weight) with a low dose of doxorubicin was performed to the palpable tumors of breast CSCs at day‐3 post‐transplantation.
Euthanization of mice was performed on day 14 post‐transplantation and tumor tissues were collected for histological and immunohistochemical analysis. Histological differences in tumor tissues were evaluated using hematoxylin and eosin staining (H&E).[28], [30]

MDA‐MB‐231 [5] = experiment: Cell migration (chemotaxis), Boyden-Chamber assay; type: cell-based, human; details: Doxorubicin 0.01 μM + compound 5 μM (PD153035 10 μM) vs 10% FBS and Doxorubicin alone
Procedure: (§3) TNBC cell lines—MDA‐MB‐231, MDA‐MB‐468, and the sorted CD24^+‐breast cancer cells, and CD24^−/CD44^+‐breast CSC populations from MDA‐MB‐231 [6] were seeded at a density of 1 × 10^6 cells/well to evaluate their migratory potential by Boyden‐Chamber assay. […] At the end of the treatment period, the cells were plated at a density of 5 × 10^3 cells/well in the upper chamber of the Boyden chamber assembly and 10% FBS in the lower chamber was used as a chemoattractant. Separately, the cells in the upper chamber were treated with Doxorubicin (0.01–0.1 μM) alone or with the potential EGFR inhibitors (compounds—1c, 1e, 1g, 1h, 1j, and 1k (5 μM) based on their low IC50 values) or a commercial EGFR inhibitor, PD153035 (10 μM) and incubated for 4 h followed by fixation and staining as described previously.[28], [29]

MDA‐MB‐468 [6] = experiment: Cell migration (chemotaxis), Boyden-Chamber assay; type: cell-based, human; details: Doxorubicin 0.01 μM + compound 5 μM (PD153035 10 μM) vs 10% FBS and Doxorubicin alone
Procedure: as §3

Compound | IC50 (MDA‐MB‐231 [1]; compound alone, MTT) [µM] | decrease in the IC50 of Doxorubicin in the presence of the compound (MDA‐MB‐468 [2]) [fold] | IC50 (MDA‐MB‐468 [2]; compound alone, MTT) [µM] | IC50 (HEK‐293; compound alone) [µM] | expression of pro‐apoptotic genes Bax and Cytochrome‐C [3] | also measured
COc1cc(C(c2c[nH]c3ccccc23)c2c[nH]c3ccccc23)ccc1O [1j] | 114 ± 1.25 | 10 | 68.4 ± 5.51 | 327 ± 20.7 | marked increase | –
c1ccc2c(C(c3c[nH]c4ccccc34)c3c[nH]c4ccccc34)c[nH]c2c1 [1b] | 22.1 ± 1.96 | – | 90.8 ± 7.87 | 231 ± 15.9 | – | –
c1ccc2c(C(c3ccc(C(c4c[nH]c5ccccc45)c4c[nH]c5ccccc45)cc3)c3c[nH]c4ccccc34)c[nH]c2c1 [1k, 1,4‐bis(di(1H‐indol‐3‐yl)methyl)benzene] | – | 10 | – | – | marked increase | IC50 (MDA‐MB‐231 [1]; Homo sapiens, MDA-MB-231, 48 h, compound alone, MTT): 14.7 ± 1.36 µM; IC50 (MDA‐MB‐468 [2]; Homo sapiens, MDA-MB-468, compound alone, MTT): 20.4 ± 2.41 µM; IC50 (HEK‐293; Homo sapiens, HEK293, compound alone): 235 ± 12.5 µM
CN(C)c1ccc(C(c2c[nH]c3ccccc23)c2c[nH]c3ccccc23)cc1 [1f] | 73 ± 1.13 | – | 130 ± 7.76 | ≥ 1000 | – | –
COc1cccc2c1C(=O)c1c(O)c3c(c(O)c1C2=O)C[C@@](O)(C(=O)CO)C[C@@H]3O[C@H]1C[C@H](N)[C@H](O)[C@H](C)O1 [Doxorubicin, reference compound] | – | – | – | – | – | IC50 (MDA‐MB‐231 [1]; Homo sapiens, MDA-MB-231, 48 h, IC50 of doxorubicin alone or in presence of compound at 5 μM): 0.1 µM; inhibition at 0.01 µM (MDA‐MB‐231 [1]; Homo sapiens, MDA-MB-231, Doxorubicin 0.01 µM alone, read-out: Percent inhibition (%) in MDA-MB-231 (Mean ± SEM)): 21.1 ± 0.701%; IC50 (MDA‐MB‐231 [1]; IC50 of doxorubicin alone or in presence of compound at 5 μM): 0.11 ± 0.01 µM; inhibition at 0.01 µM (MDA‐MB‐468 [2]; Homo sapiens, MDA-MB-468, Doxorubicin 0.01 µM alone, read-out: Percent inhibition (%) in MDA-MB-468 (Mean ± SEM)): 19.1 ± 1.08%; IC50 (MDA‐MB‐468 [2]; Homo sapiens, MDA-MB-468, IC50 of doxorubicin alone or in presence of compound at 5 μM): 0.4 ± 0.008 µM; tumor size and weight [4]: significantly lower
Oc1ccc(C(c2c[nH]c3ccccc23)c2c[nH]c3ccccc23)cc1 [1c] | 30.5 ± 2.93 | 10 | 25 ± 2.41 | 127 ± 16.8 | marked increase | migratory potential (MDA‐MB‐231 [5]): significant decrease; migratory potential (MDA‐MB‐468 [6]): significant decrease
c1ccc(C(c2c[nH]c3ccccc23)c2c[nH]c3ccccc23)nc1 [1d] | 44.4 ± 2.11 | – | 47.6 ± 5.99 | 219 ± 11.6 | – | –
c1ccc2c(C(c3c[nH]c4ccccc34)C(c3c[nH]c4ccccc34)c3c[nH]c4ccccc34)c[nH]c2c1 [1g] | ≥ 1000 | 10 | 29.6 ± 6.04 | ≥ 1000 | marked increase | migratory potential (MDA‐MB‐231 [5]): significant decrease; migratory potential (MDA‐MB‐468 [6]): significant decrease
